Results as given in patent publication US20240391940A1, “FUSED RING-CONTAINING COMPOUND, APPLICATION THEREOF, AND COMPOSITION CONTAINING SAME” (GenEros Biopharma Ltd., priority 2020, published 2024).
Read-outs that look alike come from different tables or passages of the source.

Tests used:
hERG ion channel = biological target: T1, hERG ion channel (Homo sapiens, UniProt Q12809); assay: hERG ion channel inhibition, automated QPatch on CHO cells expressing hERG; format: cell-based; details: for Inhibitory activity against hERG (conclusion): 0.1-30 μM; for inhibition at 0.3 µM / inhibition at 1 µM / inhibition at 3 µM: human, CHO cells stably expressing hERG channels
T1 construct: expressed in transfected cells; host or cells: CHO cells, stably transfected
Experimental: (§1) A CHO cell line stably transfected with cDNA and expressing hERG channels of P15 was used for the study.
(§2) Cells were maintained in Petri dishes or flasks at 37° C. in a humidified incubator with 5% CO2 and cultured in a medium containing Ham's F12, 10% (v/v) heat-inactivated FBS, 100 μg/mL hygromycin B and 100 μg/mL geneticin (from Invitrogen). The cells were allowed to grow and reach a confluency of about 80-90% under the above conditions. Before the experiment, the cells were treated with Detachin (from Genlantis) for 3-5 min, at 37° C., then gently mixed well with medium at room temperature, and titrated 15-20 times with a pipette. Then the cells were resuspended in a serum-free medium containing CHO—S-SFM II medium (from Invitrogen) buffered with HEPES (25 mM). The cells used in QPatch study must meet the following criteria: under microscopy examination, the majority of cells in suspension should be single and isolated; their viability should be greater than 95%, with only a small amount of debris and cell clumps (which may clog the holes in QPlate during whole-cell clamp recording); the cell density should be within the range of 3-8×10^6 cells/mL in the final suspension before application to the QPatch stir chamber. Cells under such conditions can be used for recording only within four hours of being harvested.
(§3) Data acquisition was performed using automated QPatch (Sophion Biosciences, Denmark). The cells were voltage-clamped at a holding potential of −80 mV. The hERG current was activated by depolarization at +20 mV for 5 s, after which the current was activated back to −50 mV for 2.5 s to remove the inactivation and observe the outward tail current. The maximum amount of tail current was used to determine hERG current amplitude.
(§4) Six doses (30, 10, 3, 1, 0.3 and 0.1 μM) were selected to obtain a fitted curve and IC^50. The compound was prepared into serial dilutions in 3, 1, 0.3 and 0.1 mM DMSO vehicle to the final M ranges before the QPatch test. 5-10 minutes' ultrasonication and vortexing were generally used for solution to help completely dissolve the compound. The final DMSO concentration was 0.1% or lower, except that for the 30 μM point, the DMSO concentration was about 0.3%.
(§5) After achieving break-in (whole-cell) configuration, the cells were recorded for 120 s to assess current stability. The voltage settings described above were then applied to the cells once every 15 s throughout the whole process. Only stable cells with recording parameters above threshold were allowed to enter the drug assessment procedure. All the experiments were conducted at room temperature (about 25° C.).
(§6) An external solution containing 0.1% DMSO (vehicle) was applied to the cells to establish a baseline. After allowing the current to stabilize for 3 min, the compound was added. The compound solution was added and the cells were kept in the test solution until the effect of the compound reached a steady state or for a maximum of 4 min. For dose response assays, the compound was applied cumulatively to the cells from low to high concentrations. Washing with external solution was performed after compound testing. The positive control cisapride was used in the experiments to test the same batch of cells used for test compounds to ensure the normal response and the good quality of the cells.

hERG = biological target: T2, hERG (Homo sapiens, UniProt Q12809); assay: as above; format: cell-based; details: human, CHO cells stably expressing hERG channels
T2 construct: expressed in transfected cells; host or cells: CHO cells, stably transfected
Experimental: as §1, §2, §3, §4, §5, §6

[1] = PK profile in SD rats (i.v. / oral gavage, plasma LC-MS); format: in vivo; details: female, rat; for Vd: read-out: Vdss
Description: (§7) Method: SD rats from acceptable sources (N=3, female, 6-8 weeks, weighing 200-230 g, purchased from JH Laboratory Animal Co. LTD, SCXK (SH) 2017-0012 20170012001153) or beagles (N=3, not experimentally naive animals, female, weighing 6.55-8.62 kg, purchased from Beijing Marshall Biotech Co. Ltd., quality inspection number SCXK (BJ) 2016-0001 110318201100068072) were selected and administered, by intravenous injection or oral gavage (3 animals per route), corresponding doses of the test compound GEN1-117 or GEN1-284s (the sample for intravenous injection was dissolved in a solution of 10% DMSO, 10% Soltol HS15 and 80% PBS, and the sample for oral administration was dissolved in a 0.5% aqueous methylcellulose solution). Peripheral blood samples (150 μL) were taken (at 0, 0.083, 0.25, 0.5, 1, 2, 4, 8 and 24 h for the intravenous injection route; at 0, 0.25, 0.5, 1, 2, 4, 8 and 24 h for the oral injection route; into K2-EDTA anticoagulant tubes; centrifuged at 2000 g at 4 C for 5 min within 15 min), and plasma was separated and subjected to LC-MS analysis (LC-MS/MS-37, triple Quad 6500) using the conventional method with diclofenac as an internal standard. Mass spectrometry conditions: ESI cation, MRM detection:
(§8) HPLC conditions: mobile phase A: 0.1% FA in water, mobile phase B: 0.1% FA in ACN
(§9) Chromatography column: Waters ACQUITY UPLC HSS T3 (2.1×50 mm, 1.8 μm)
(§10) A test sample standard curve was prepared from 1, 2, 10, 30, 100, 300, 1000, 2700 and 3000 ng/mL (50% ACN in water), and 3 μL of standard-curve solution was mixed with 57 μL of same-species blank plasma. A test plasma sample (60 μL) was well mixed with 6 μL of 10% FA in water, and 30 μL of the mixture was taken and well mixed with 200 μL of the internal standard compound diclofenac (40 ng/mL in ACN). After the resulting mixture was vortexed and shaken for 1 min and centrifuged at 5800 rpm for 10 min, 100 μL of the supernatant was transferred to a new test plate, and 1 μL of solution was loaded on an LC-MS/MS system.

[2] = PK profile in beagles (i.v. / oral gavage, plasma LC-MS); format: in vivo; details: female, beagle, dog, analyte = labelled compound
Description: as §7, §8, §9, §10

[3] = read-out: % of hERG inhibition, Cell 2
[4] = read-out: Mean % hERG inhibition
[5] = read-out: % of hERG inhibition, Cell 1
[6] = iv, 1 mg/kg, GEN1-117 dosed i.v. 1 mg/kg
[7] = iv, 1 mg/kg, GEN1-284s dosed i.v. 1 mg/kg, analyte = labelled compound
[8] = iv, GEN1-117 dosed i.v. 1 mg/kg
[9] = po, 10 mg/kg, GEN1-117 dosed p.o. 10 mg/kg
[10] = po, 10 mg/kg, GEN1-284s dosed p.o. 10 mg/kg, analyte = labelled compound
[11] = po, GEN1-284s dosed p.o. 10 mg/kg, analyte = labelled compound
[12] = iv, GEN1-284s dosed i.v. 0.5 mg/kg
[13] = po, GEN1-284s dosed p.o. 5 mg/kg
[14] = iv, GEN1-284s dosed i.v. 1 mg/kg, analyte = labelled compound

T2 sequence (Q12809 whole entry): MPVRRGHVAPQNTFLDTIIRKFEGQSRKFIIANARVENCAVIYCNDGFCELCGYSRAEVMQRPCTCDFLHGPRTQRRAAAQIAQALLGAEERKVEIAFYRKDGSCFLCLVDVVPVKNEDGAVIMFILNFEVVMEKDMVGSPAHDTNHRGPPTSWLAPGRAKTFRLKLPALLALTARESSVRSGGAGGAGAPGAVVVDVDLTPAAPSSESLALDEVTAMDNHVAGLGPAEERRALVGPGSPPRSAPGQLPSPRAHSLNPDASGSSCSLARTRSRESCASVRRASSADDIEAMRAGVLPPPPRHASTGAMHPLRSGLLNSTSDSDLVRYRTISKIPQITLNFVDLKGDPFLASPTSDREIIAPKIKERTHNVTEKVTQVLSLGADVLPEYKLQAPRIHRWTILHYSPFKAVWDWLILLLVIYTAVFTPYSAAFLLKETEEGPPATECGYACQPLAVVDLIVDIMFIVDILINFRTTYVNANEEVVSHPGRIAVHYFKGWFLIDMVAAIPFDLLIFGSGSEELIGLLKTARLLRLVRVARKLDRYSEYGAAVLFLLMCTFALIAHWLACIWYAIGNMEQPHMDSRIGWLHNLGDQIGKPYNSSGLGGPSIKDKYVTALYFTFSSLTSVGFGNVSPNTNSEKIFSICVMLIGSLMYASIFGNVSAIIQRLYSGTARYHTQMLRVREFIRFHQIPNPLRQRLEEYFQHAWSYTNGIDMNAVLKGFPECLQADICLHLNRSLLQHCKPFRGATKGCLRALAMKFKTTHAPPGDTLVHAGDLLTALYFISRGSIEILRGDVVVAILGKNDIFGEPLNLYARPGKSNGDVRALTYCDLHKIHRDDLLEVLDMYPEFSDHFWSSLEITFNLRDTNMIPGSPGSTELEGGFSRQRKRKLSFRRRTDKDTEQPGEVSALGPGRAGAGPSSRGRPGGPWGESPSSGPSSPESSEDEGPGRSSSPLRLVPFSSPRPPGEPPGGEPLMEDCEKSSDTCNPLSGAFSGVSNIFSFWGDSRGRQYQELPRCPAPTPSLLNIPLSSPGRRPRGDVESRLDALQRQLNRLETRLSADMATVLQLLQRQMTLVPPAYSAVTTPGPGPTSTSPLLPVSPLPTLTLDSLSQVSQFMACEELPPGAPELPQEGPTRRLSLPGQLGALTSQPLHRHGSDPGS
T1 sequence (Q12809 whole entry): as above

Compound: O=C(Cc1ccc2ncccc2c1)N1CCC(n2c(=O)[nH]c3cccc(C(F)(F)F)c32)CC1 [GEN1-117, 1-(1-(2-(Quinolin-6-yl)acetyl)piperidin-4-yl)-7-(trifluoromethyl)-1H-benzo[d]imidazol-2(3H)-one]
- Inhibitory activity against hERG (conclusion) (hERG ion channel): no significant inhibitory activity against hERG
- inhibition at 0.3 µM (hERG ion channel; [3]): 4.17%
- inhibition at 0.3 µM (hERG ion channel; [4]): 4.06%
- inhibition at 1 µM (hERG ion channel; [5]): 7.99%
- inhibition at 1 µM (hERG ion channel; [3]): 13.4%
- inhibition at 1 µM (hERG ion channel; [4]): 10.7%
- inhibition at 3 µM (hERG ion channel; [5]): 11%
- inhibition at 3 µM (hERG ion channel; [3]): 13.3%
- inhibition at 3 µM (hERG ion channel; [4]): 12.2%
- inhibition at 0.1 µM (hERG; [5]): 3.84%
- inhibition at 0.1 µM (hERG; [3]): -0.21%
- inhibition at 0.1 µM (hERG; [4]): 1.81%
- inhibition at 0.3 µM (hERG; [5]): 3.95%
- inhibition at 10 µM (hERG; [5]): 12.8%
- inhibition at 10 µM (hERG; [3]): 19.3%
- inhibition at 10 µM (hERG; [4]): 16%
- inhibition at 30 µM (hERG; [5]): 12.8%
- inhibition at 30 µM (hERG; [3]): 19.3%
- inhibition at 30 µM (hERG; [4]): 16%
- AUC(0-t) [1, 6]: 1640 ng·h/mL
- half-life [1, 6]: 4.2 h
- AUC(0-t) [1, 7]: 1510 ng·h/mL
- half-life [1, 7]: 4.16 h
- clearance [1, 8]: 10.3 mL/min/kg
- Vd [1, 8]: 2.75 L/kg
- bioavailability ([1]; oral, GEN1-117 dosed p.o. 10 mg/kg vs i.v. 1 mg/kg): 2.6%
- AUC(0-t) [1, 9]: 423 ng·h/mL
- Cmax [1, 9]: 42.8 ng/mL
- Tmax [1, 9]: 4 h
- half-life [1, 9]: 4.28 h
- AUC(0-t) [1, 10]: 14600 ng·h/mL
- Cmax [1, 10]: 2440 ng/mL
- Tmax [1, 10]: 2 h
- half-life [1, 10]: 3.82 h
- bioavailability [1, 11]: 96.3%
- AUC(0-t) [2, 12]: 2000 ng·h/mL
- half-life [2, 12]: 4.06 h
- AUC(0-t) [2, 13]: 17900 ng·h/mL
- Cmax [2, 13]: 2770 ng/mL
- Tmax [2, 13]: 1.33 h
- bioavailability [2, 13]: 89.8%
- half-life [2, 13]: 4.18 h

Compound: O=C(Cc1ccc2ncccc2c1)N1CCC(n2c(=O)n(COP(=O)([O-])[O-])c3cccc(C(F)(F)F)c32)CC1.[Na+].[Na+] [GEN1-284 salt, (2-Oxo-3-(1-(2-(quinolin-6-yl)acetyl)piperidin-4-yl)-4-(trifluoromethyl)-2,3-dihydro-1H-benzo[d]imidazol-1-yl)methyl disodium phosphate]
- Inhibitory activity against hERG (conclusion) (hERG ion channel): no significant inhibitory activity against hERG
- inhibition at 0.3 µM (hERG ion channel; [3]): 2.25%
- inhibition at 0.3 µM (hERG ion channel; [4]): 6.24%
- inhibition at 1 µM (hERG ion channel; [5]): 2.88%
- inhibition at 1 µM (hERG ion channel; [3]): 0%
- inhibition at 1 µM (hERG ion channel; [4]): 1.44%
- inhibition at 3 µM (hERG ion channel; [5]): 0%
- inhibition at 3 µM (hERG ion channel; [3]): 2.66%
- inhibition at 3 µM (hERG ion channel; [4]): 1.33%
- inhibition at 0.1 µM (hERG; [5]): 2.22%
- inhibition at 0.1 µM (hERG; [3]): 8.28%
- inhibition at 0.1 µM (hERG; [4]): 5.25%
- inhibition at 0.3 µM (hERG; [5]): 10.2%
- inhibition at 10 µM (hERG; [5]): 9.28%
- inhibition at 10 µM (hERG; [3]): 3.41%
- inhibition at 10 µM (hERG; [4]): 6.34%
- inhibition at 30 µM (hERG; [5]): 19.1%
- inhibition at 30 µM (hERG; [3]): 8.86%
- inhibition at 30 µM (hERG; [4]): 13.9%
- AUC(0-t) [1, 14]: 2750 ng·h/mL
- clearance [1, 14]: 6.23 mL/min/kg
- half-life [1, 14]: 0.39 h
- Vd [1, 14]: 0.047 L/kg
- Tmax [1, 10]: 0.42 h
- AUC(0-t) [1, 11]: 5.72 ng·h/mL
- Cmax [1, 11]: 6.04 ng/mL
- half-life [1, 11]: 0.95 h
- AUC(0-t) [2, 12]: 207 ng·h/mL
- clearance [2, 12]: 43.5 mL/min/kg
- half-life [2, 12]: 0.085 h
- Vd ([2]; iv, GEN1-284s dosed i.v. 0.5 mg/kg, read-out: Vdss): 0.155 L/kg
